Data on two molecules can be found in patent US9902766B2, “Antibodies to endoplasmin and their use” (University of Pittsburgh—Of The Commonwealth System of …, priority 2010, dated 2018).

Read-outs that look alike come from different tables or passages of the source.

The test deals with MIAPaCa-2 cancer initiating cells (ALDHbright cells). The experiment in a line: cancer initiating cell in vitro proliferation, ALDEFLUOR flow cytometry. In kind it is cell-based. Conditions: Homo sapiens, read-out: growth inhibition of ALDHbright cells. Here is the method: FIG. 19. […] Human pancreatic adenocarcinoma MIAPaCa-2 cells were incubated with mAb W9 (25 μg/ml), for 48 hrs at 37° C. Cells were then harvested and stained with ALDEFLUOR® (TEST). Cells stained with ALDEFLUOR®+DAEB were used as a reference (CONTROL). Human Ig (HIg) were used as a control.
FIG. 26. […] Human pancreatic adenocarcinoma MIAPaCa-2 cells were incubated with mAb W9 (25 μg/ml), cyclopamine (20 μM), and 5-FU (10 μM) for 48 hrs at 37° C. Cells were then stained with ALDEFLUOR with or without the DEAB inhibitor to identify ALDH^bright cells. The anti-HLA class I mAb TP25.99 was used as a control.
FIGS. 28A and 28B. […] Human pancreatic adenocarcinoma MIAPaCa-2 cells (4×10^5/ml) were irradiated at the dose of 20Gy (panel A.) and incubated with mAb W9 (10 μg/ml) and cyclopamine (20 μM) for 72 hrs at 37° C. Cells were then stained with ALDEFLUOR with or without the DEAB inhibitor to identify ALDH^bright cells. Non-irradiated cell were used as a control (panel B.).

Turning to `O=c1[nH]cc(F)c(=O)[nH]1` [5-FU, 5-fluorouracil, reference compound], the inhibition at 10 µM (MIA PaCa-2, MIAPaCa-2, mAb W9 25 μg/ml, cyclopamine 20 μM, 5-FU 10 μM, 48 hrs) stood at 20%.

For `CC1=C2C[C@H]3[C@@H](CC=C4C[C@@H](O)CC[C@@]43C)[C@@H]2CC[C@]12O[C@@H]1C[C@H](C)CN[C@H]1[C@H]2C` [cyclopamine, reference compound], the inhibition at 20 µM is 50% (MIA PaCa-2, 48 h) and around 50% (MIA PaCa-2, 72 h).
